Values quoted from earlier work in US20040023937A1, “Anti-cancer formulation” (Greystone Medical Group, Inc., priority 2002, published 2004).

How the values were obtained:
[1] = test system: human fibrosarcoma cells; conditions: reported
[2] = test system: MMP-9; conditions: gelatin degrading matrix metalloproteinase; mechanism reported to be thought to involve it
[3] = test system: MMP-2; conditions: second of two gelatin degrading MMP's; reported

Q: Which anti-invasive activity [1] does the source give for `C[C@H]1[C@H](C)CC[C@]2(C(=O)O)CC[C@]3(C)C(=CC[C@@H]4[C@@]5(C)CC[C@H](O)C(C)(C)[C@@H]5CC[C@]43C)[C@H]12` [Ursolic acid] here?
A: anti-invasive activity

Q: And the “down-regulation of MMP-9” value [2]?
A: down-regulation

Q: And the “effect on MMP-2” value [3]?
A: no effect
